In patent US20120252729A1, “PTH-CONTAINING THERAPEUTIC/PROPHYLACTIC AGENT FOR OSTEOPOROSIS, CHARACTERIZED IN THAT PTH IS ADMINISTERED ONCE A WEEK IN A UNIT DOSE OF 100 TO 200 UNITS” (ASAHI KASEI PHARMA CORPORATION, priority 2009, published 2012):

Tests used:
[1] = system: high-risk patients diagnosed with primary osteoporosis; assay: Working Example 2: CT geometry of the proximal femur (neck, trochanter, shaft); format: in vivo, human; conditions: 200 units weekly
Method: For the CT geometry, the proximal part of the femur was measured at the start and after 48 and 72 weeks using multislice CT scan.
The effects of the test drug on three parts of the femur (neck of the femur, trochanter, and shaft of the femur) were studied using ordinary CT scans.

[2] = system: osteoporosis patients having normal renal function, mild or moderate renal dysfunction; conditions: in vivo
[3] = in vivo
Method: The Lumbar spine bone mineral density and occurrence of bone fractures were checked as bone assessments. For the Lumbar spine bone mineral density, the bone density of the second to fourth lumbar spine was measured at the start and every six months thereafter using dual-energy x-ray absorptiometry (DXA). For the frequency of bone fractures, x-rays were taken from the front and side of the fourth thoracic to the fifth lumbar spine at the start and every six months thereafter, and new vertebral fractures were assessed by comparison of the roentgen films at the start and at each point in time thereafter using the method of Genant et al. (Non-patent Reference 14) as a reference. In locations other than the vertebrae, fractures were evaluated by checking by roentgen films. Blood samples were also taken from all patients at the beginning and during administration, and the general laboratory test values, including the calcium concentration, were measured. The administration period in high-risk patients (DXA and new vertebral fractures were assessed collectively at the center; fractures of other than vertebrae were assessed by the investigator based on the roentgen films) was 85.1±20.8 weeks in the 5 unit group and 83.7±19.8 weeks in the 100 unit group. […] The administration period in low-risk patients was 72.7±19.4 weeks in the 5 unit group and 88.3±21.3 weeks in the 100 unit group.

[4] = in vivo; remark: listed apart in the source
Method: The ratio of the urinary calcium value/urinary creatine value was compared before beginning administration and in the weeks of observation. The urinary calcium was measured at the start, after 12 weeks, after 24 weeks, after 48 weeks, and after 72 weeks.

[5] = system: high-risk patients diagnosed with primary osteoporosis; assay: Working Example 2: new (incl. multiple, new+worsening) vertebral fractures by x-ray, test drug 200 units once a week for 72 weeks vs placebo; format: in vivo, human
Source text: The above patients also took two tablets of a calcium agent once a day after dinner. […] The preparation contained precipitated calcium carbonate, magnesium carbonate, cholecalciferol (vitamin D3), and the like as components and is marketed under the trade name New Calcichew (trademark) D3″ (sold by: Daiichi Sankyo Health Care, manufactured and sold by: Nitto Pharmaceutical Industries, Ltd.).
The incidence of bone fractures was checked by frontal and lateral x-rays of the fourth thoracic to the fourth lumbar spine taken at the start and every 24 weeks thereafter.
Here, “multiple vertebral fractures” was defined as two or more new vertebral fractures. When the incidence of multiple vertebral fractures (number of cases) was compared in the test drug group (n=261) and control group (n=281) after 72 weeks of administration, it was 2.1% (6 cases) in the control group and 0.8% (2 cases) in the test drug group.

[6] = system: patients diagnosed with primary osteoporosis; assay: Working Example 1: lumbar spine bone mineral density by DXA, teriparatide acetate 5 or 100 units once a week plus calcium agent; format: in vivo, human; conditions: mean ± SD
Method: Both the 5 and 100 unit groups were administered two tablets of a calcium agent (containing 500 mg of precipitated calcium carbonate [200 mg as calcium] per tablet) once a day.
The osteoporosis patients were classified as condition shown in Table 1 based on the bone fracture risk factors present, as in Non-patent Reference 13, and compared. High-risk patients were defined as having all three factors involving age, prevalent vertebral fractures, and bone density or bone atrophy; low-risk patients were defined as other than the above.

[7] = 200 units weekly, 72 weeks, No. of fractures: five or more
[8] = 200 units weekly, 72 weeks, No. of fractures: four
[9] = 200 units weekly, 72 weeks, No. of fractures: none
[10] = 200 units weekly, 72 weeks, No. of fractures: one
[11] = 200 units weekly, 72 weeks, No. of fractures: three
[12] = 200 units weekly, 72 weeks, No. of fractures: two
[13] = 200 units weekly, after 72 weeks, n=261
[14] = 200 units weekly, history of Alfacalcidol
[15] = 200 units weekly, history of calcitriol
[16] = 200 units weekly, history of calcium L-aspartate
[17] = 200 units weekly, history of calcium lactate
[18] = 200 units weekly, history of elcatonin
[19] = 200 units weekly, history of menatetrenone
[20] = 200 units weekly, history of raloxifene hydrochloride
[21] = 200 units weekly, patients taking glucocorticoid

## teriparatide acetate
[1]; neck of femur
  Maximum section modulus (SM (Z min)), change from baseline after 48 weeks (%): 3.43%
  Maximum section modulus (SM (Z min)), change from baseline after 72 weeks (%): 1.87%
  Volume bone mineral density (cortical bone) [vBMD cortical], change from baseline after 48 weeks (%): −0.77%
  Volume bone mineral density (cortical bone) [vBMD cortical], change from baseline after 72 weeks (%): −1.14%
  Volume bone mineral density (total) [vBMD total], change from baseline after 48 weeks (%): 0.92%
  Volume bone mineral density (total) [vBMD total], change from baseline after 72 weeks (%): 0.15%
[1]; shaft of femur
  Maximum section modulus (SM (Z min)), change from baseline after 48 weeks (%): 1.28%
  Maximum section modulus (SM (Z min)), change from baseline after 72 weeks (%): 2.69%
  Volume bone mineral density (cortical bone) [vBMD cortical], change from baseline after 48 weeks (%): 0.59%
  Volume bone mineral density (cortical bone) [vBMD cortical], change from baseline after 72 weeks (%): 0.18%
  Volume bone mineral density (total) [vBMD total], change from baseline after 48 weeks (%): 1.03%
  Volume bone mineral density (total) [vBMD total], change from baseline after 72 weeks (%): 1.25%
[1]; trochanter
  Maximum section modulus (SM (Z min)), change from baseline after 48 weeks (%): 5.19%
  Maximum section modulus (SM (Z min)), change from baseline after 72 weeks (%): 3.20%
  Volume bone mineral density (cortical bone) [vBMD cortical], change from baseline after 48 weeks (%): −0.49%
  Volume bone mineral density (cortical bone) [vBMD cortical], change from baseline after 72 weeks (%): −1.49%
  Volume bone mineral density (total) [vBMD total], change from baseline after 48 weeks (%): 1.36%
  Volume bone mineral density (total) [vBMD total], change from baseline after 72 weeks (%): 0.95%
[2]
  Side effects Yes (%): 36.8%
  Side effects, point estimate of the difference: 29.1
  Side effects: No (%): 55.1%
  Side effects: No, No. of cases: 27
  Side effects: Yes (%): 44.9%
  Side effects: Yes, No. of cases: 22
[3]
  Hypercalcemia during the administration period: did not cause hypercalcemia at either dose
[4]
  Average percentage change in the urinary calcium value: 3.2%
  Median percentage change in the urinary calcium value: −14.7%
[5]; 200 units weekly, 48 to 72 weeks
  Occurrence of new vertebral fractures after 48 weeks: no new vertebral fractures occurred after 48 weeks
[5]; [7]
  New vertebral fractures: Incidence (%): 0.0%
  New vertebral fractures: No. of subjects: 0
[5]; [8]
  New vertebral fractures: Incidence (%): 0.0%
  New vertebral fractures: No. of subjects: 0
[5]; [9]
  New vertebral fractures: Incidence (%): 97.3%
  New vertebral fractures: No. of subjects: 254
[5]; [10]
  New vertebral fractures: Incidence (%): 1.9%
  New vertebral fractures: No. of subjects: 5
[5]; [11]
  New vertebral fractures: Incidence (%): 0.0%
  New vertebral fractures: No. of subjects: 0
[5]; [12]
  New vertebral fractures: Incidence (%): 0.8%
  New vertebral fractures: No. of subjects: 2
[5]; 200 units weekly, after 72 weeks
  Lowering of the risk of vertebral fractures (new+worsening) in comparison to the placebo: 78.6%
[5]; 200 units weekly, after 72 weeks, FAS
  Incidence of vertebral fractures (new+worsening) by Kaplan-Meier estimation: 3.5%
[5]; [13]
  Incidence of multiple vertebral fractures (two or more new vertebral fractures): 0.8%
  Multiple vertebral fractures, number of cases: 2 cases
[5]; 200 units weekly, complication (diabetes): no
  New vertebral fractures: No. with fractures: 7
[5]; 200 units weekly, complication (diabetes): no, after 24 W
  Incidence of new vertebrae fractures (%): 2.8%
[5]; 200 units weekly, complication (diabetes): no, after 48 W
  Incidence of new vertebrae fractures (%): 3.3%
[5]; 200 units weekly, complication (diabetes): no, after 72 W
  Incidence of new vertebrae fractures (%): 3.3%
[5]; 200 units weekly, complication (diabetes): yes
  New vertebral fractures: No. with fractures: 0
[5]; 200 units weekly, complication (diabetes): yes, after 24 W
  Incidence of new vertebrae fractures (%): 0.0%
[5]; 200 units weekly, complication (diabetes): yes, after 48 W
  Incidence of new vertebrae fractures (%): 0.0%
[5]; 200 units weekly, complication (diabetes): yes, after 72 W
  Incidence of new vertebrae fractures (%): 0.0%
[5]; 200 units weekly, complication (hyperlipidemia): no
  New vertebral fractures: No. with fractures: 4
[5]; 200 units weekly, complication (hyperlipidemia): no, after 24 W
  Incidence of new vertebrae fractures (%): 2.2%
[5]; 200 units weekly, complication (hyperlipidemia): no, after 48 W
  Incidence of new vertebrae fractures (%): 3.0%
[5]; 200 units weekly, complication (hyperlipidemia): no, after 72 W
  Incidence of new vertebrae fractures (%): 3.0%
[5]; 200 units weekly, complication (hyperlipidemia): yes
  New vertebral fractures: No. with fractures: 3
[5]; 200 units weekly, complication (hyperlipidemia): yes, after 24 W
  Incidence of new vertebrae fractures (%): 3.2%
[5]; 200 units weekly, complication (hyperlipidemia): yes, after 48 W
  Incidence of new vertebrae fractures (%): 3.2%
[5]; 200 units weekly, complication (hyperlipidemia): yes, after 72 W
  Incidence of new vertebrae fractures (%): 3.2%
[5]; 200 units weekly, complication (hypertension): no
  New vertebral fractures: No. with fractures: 3
[5]; 200 units weekly, complication (hypertension): no, after 24 W
  Incidence of new vertebrae fractures (%): 2.1%
[5]; 200 units weekly, complication (hypertension): no, after 48 W
  Incidence of new vertebrae fractures (%): 3.1%
[5]; 200 units weekly, complication (hypertension): no, after 72 W
  Incidence of new vertebrae fractures (%): 3.1%
[5]; 200 units weekly, complication (hypertension): yes
  New vertebral fractures: No. with fractures: 4
[5]; 200 units weekly, complication (hypertension): yes, after 24 W
  Incidence of new vertebrae fractures (%): 3.1%
[5]; 200 units weekly, complication (hypertension): yes, after 48 W
  Incidence of new vertebrae fractures (%): 3.1%
[5]; 200 units weekly, complication (hypertension): yes, after 72 W
  Incidence of new vertebrae fractures (%): 3.1%
[5]; 200 units weekly, creatinine clearance abnormal (<80), after 24 W
  Incidence of new vertebral fractures (%): 2.8%
[5]; 200 units weekly, creatinine clearance abnormal (<80), after 48 W
  Incidence of new vertebral fractures (%): 3.4%
[5]; 200 units weekly, creatinine clearance abnormal (<80), after 72 W
  Incidence of new vertebral fractures (%): 3.4%
[5]; 200 units weekly, creatinine clearance at start abnormal (<80)
  New vertebral fractures: No. with fractures: 6
[5]; 200 units weekly, creatinine clearance at start normal (≧80)
  New vertebral fractures: No. with fractures: 0
[5]; 200 units weekly, creatinine clearance normal (≧80), after 24 W
  Incidence of new vertebral fractures (%): 0.0%
[5]; 200 units weekly, creatinine clearance normal (≧80), after 48 W
  Incidence of new vertebral fractures (%): 0.0%
[5]; 200 units weekly, creatinine clearance normal (≧80), after 72 W
  Incidence of new vertebral fractures (%): 0.0%
[5]; [14]
  New vertebral fractures: no (patients): 62
  New vertebral fractures: yes (patients): 1
[5]; [15]
  New vertebral fractures: no (patients): 7
  New vertebral fractures: yes (patients): 1
[5]; [16]
  New vertebral fractures: no (patients): 28
  New vertebral fractures: yes (patients): 1
[5]; [17]
  New vertebral fractures: no (patients): 8
  New vertebral fractures: yes (patients): 0
[5]; [18]
  New vertebral fractures: no (patients): 35
  New vertebral fractures: yes (patients): 2
[5]; [19]
  New vertebral fractures: no (patients): 6
  New vertebral fractures: yes (patients): 0
[5]; [20]
  New vertebral fractures: no (patients): 20
  New vertebral fractures: yes (patients): 0
[5]; [21]
  Existence of new vertebral fractures, Fracture: no (patients): 29
  Existence of new vertebral fractures, Fracture: yes (patients): 0
[5]; 200 units weekly, prior osteoporosis treatment (no)
  New vertebral fractures: No. with fractures: 4
[5]; 200 units weekly, prior osteoporosis treatment (no), after 24 W
  Incidence of new vertebral fractures (%): 2.4%
[5]; 200 units weekly, prior osteoporosis treatment (no), after 48 W
  Incidence of new vertebral fractures (%): 3.2%
[5]; 200 units weekly, prior osteoporosis treatment (no), after 72 W
  Incidence of new vertebral fractures (%): 3.2%
[5]; 200 units weekly, prior osteoporosis treatment (yes)
  New vertebral fractures: No. with fractures: 3
[5]; 200 units weekly, prior osteoporosis treatment (yes), after 24 W
  Incidence of new vertebral fractures (%): 2.9%
[5]; 200 units weekly, prior osteoporosis treatment (yes), after 48 W
  Incidence of new vertebral fractures (%): 2.9%
[5]; 200 units weekly, prior osteoporosis treatment (yes), after 72 W
  Incidence of new vertebral fractures (%): 2.9%
[5]; FAS, 72 weeks
  New vertebral fractures, No. with fractures: 7
[5]; time after administration >24 W-≦48 W
  New vertebral fractures, No. with fractures: 2
[5]; time after administration >48 W-≦72 W
  New vertebral fractures, No. with fractures: 0
[5]; time after administration ≦24 W
  New vertebral fractures, No. with fractures: 6
[6]; high-risk patients, 5 units once a week, after 26 W
  Lumbar spine bone mineral density (% change): −0.9 ± 4.4%
[6]; high-risk patients, 5 units once a week, after 52 W
  Lumbar spine bone mineral density (% change): −0.6 ± 4.1%
[6]; high-risk patients, 5 units once a week, after 78 W
  Lumbar spine bone mineral density (% change): 0.4 ± 4.1%
[6]; high-risk patients, 5 units once a week, after 104 W
  Lumbar spine bone mineral density (% change): 0.4 ± 4.0%
[6]; high-risk patients, 5 units once a week, final check
  Lumbar spine bone mineral density (% change): −0.1 ± 4.8%
[6]; high-risk patients, 100 units once a week, after 26 W
  Lumbar spine bone mineral density (% change): 3.3 ± 4.5 %
[6]; high-risk patients, 100 units once a week, after 52 W
  Lumbar spine bone mineral density (% change): 4.3 ± 4.5 %
[6]; high-risk patients, 100 units once a week, after 78 W
  Lumbar spine bone mineral density (% change): 4.0 ± 4.5 %
[6]; high-risk patients, 100 units once a week, after 104 W
  Lumbar spine bone mineral density (% change): 4.9 ± 4.2 %
[6]; high-risk patients, 100 units once a week, final check
  Lumbar spine bone mineral density (% change): 4.5 ± 4.6 %
[6]; low-risk patients, 5 units once a week, after 26 W
  Lumbar spine bone mineral density (% change): −0.6 ± 6.4%
[6]; low-risk patients, 5 units once a week, after 52 W
  Lumbar spine bone mineral density (% change): −0.7 ± 6.2%
[6]; low-risk patients, 5 units once a week, after 78 W
  Lumbar spine bone mineral density (% change): 1.9 ± 7.5%
[6]; low-risk patients, 5 units once a week, final check
  Lumbar spine bone mineral density (% change): −0.6 ± 5.7%
